Laboratory results as given in patent US20230346827A1 (priority 2020, published 2023).

Test system: rats subjected to sTBI
Test: sTBI rats, LMW-DS 1, 5, 15 mg/kg s.c. 30 min post-TBI: HPLC of brain free amino acids (Example 4)
Type: in vivo, rat
Settings: for HYS concentration in deproteinized brain homogenate / ILE concentration in deproteinized brain homogenate / LEU concentration in deproteinized brain homogenate / LYS concentration in deproteinized brain homogenate / PHE concentration in deproteinized brain homogenate / TAU concentration in deproteinized brain homogenate / TRP concentration in deproteinized brain homogenate / TYR concentration in deproteinized brain homogenate / VAL concentration in deproteinized brain homogenate: rats 7 days post-sTBI, mean ± S.D. of 12 animals
[1] = 15 mg/kg repeated, 7 d post-sTBI
[2] = repeated administration of 15 mg/kg b.w.
[3] = single administration 1 mg/kg b.w.
[4] = single administration 5 mg/kg b.w.
[5] = single administration 15 mg/kg b.w.

sodium salt of dextran sulfate [LMW-DS]
GLN [1]: 3.88 ± 0.40 nmol/g w.w. | GLU [1]: 10.78 ± 0.91 nmol/g w.w. | GLY [1]: 0.78 ± 0.10 nmol/g w.w. | L-Cystat [1]: 0.44 ± 0.07 nmol/g w.w. | MET [1]: 0.05 ± 0.01 nmol/g w.w. | ORN [1]: 0.02 ± 0.01 nmol/g w.w. | SAH [1]: 0.04 ± 0.04 nmol/g w.w. | SER [1]: 0.79 ± 0.13 nmol/g w.w. | THR [1]: 0.77 ± 0.14 nmol/g w.w. | ALA (15 mg/kg, 2 d post-sTBI): 0.68 ± 0.07 nmol/g w.w. | ARG (15 mg/kg, 2 d post-sTBI): 0.16 ± 0.04 nmol/g w.w. | ASN (15 mg/kg, 2 d post-sTBI): 0.17 ± 0.03 nmol/g w.w. | ASP (15 mg/kg, 2 d post-sTBI): 3.05 ± 0.42 nmol/g w.w. | CITR (15 mg/kg, 2 d post-sTBI): 0.01 ± 0.01 nmol/g w.w. | GABA (15 mg/kg, 2 d post-sTBI): 1.58 ± 0.14 µmol/g w.w. | GLN (15 mg/kg, 2 d post-sTBI): 4.21 ± 0.51 nmol/g w.w. | GLU (15 mg/kg, 2 d post-sTBI): 11.79 ± 0.55 nmol/g w.w. | GLY (15 mg/kg, 2 d post-sTBI): 1.18 ± 0.23 nmol/g w.w. | HYS (15 mg/kg, 2 d post-sTBI): 0.10 ± 0.01 nmol/g w.w. | ILE (15 mg/kg, 2 d post-sTBI): 0.06 ± 0.01 nmol/g w.w. | L-Cystat (15 mg/kg, 2 d post-sTBI): 0.41 ± 0.08 nmol/g w.w. | LEU (15 mg/kg, 2 d post-sTBI): 0.04 ± 0.01 nmol/g w.w. | LYS (15 mg/kg, 2 d post-sTBI): 0.32 ± 0.12 nmol/g w.w. | MET (15 mg/kg, 2 d post-sTBI): 0.03 ± 0.01 nmol/g w.w. | ORN (15 mg/kg, 2 d post-sTBI): 0.02 ± 0.01 nmol/g w.w. | PHE (15 mg/kg, 2 d post-sTBI): 0.06 ± 0.01 nmol/g w.w. | SAH (15 mg/kg, 2 d post-sTBI): 0.06 ± 0.02 nmol/g w.w. | SER (15 mg/kg, 2 d post-sTBI): 0.76 ± 0.06 nmol/g w.w. | TAU (15 mg/kg, 2 d post-sTBI): 4.59 ± 0.43 nmol/g w.w. | THR (15 mg/kg, 2 d post-sTBI): 0.61 ± 0.13 nmol/g w.w. | TRP (15 mg/kg, 2 d post-sTBI): 0.04 ± 0.01 nmol/g w.w. | TYR (15 mg/kg, 2 d post-sTBI): 0.17 ± 0.03 nmol/g w.w. | VAL (15 mg/kg, 2 d post-sTBI): 0.06 ± 0.03 nmol/g w.w. | ALA (15 mg/kg, 7 d post-sTBI): 0.38 ± 0.04 nmol/g w.w. | ARG (15 mg/kg, 7 d post-sTBI): 0.14 ± 0.02 nmol/g w.w. | ASN (15 mg/kg, 7 d post-sTBI): 0.10 ± 0.02 nmol/g w.w. | ASP (15 mg/kg, 7 d post-sTBI): 2.29 ± 0.37 nmol/g w.w. | CITR (15 mg/kg, 7 d post-sTBI): 0.03 ± 0.01 nmol/g w.w. | GABA (15 mg/kg, 7 d post-sTBI): 1.43 ± 0.15 µmol/g w.w. | GLN (15 mg/kg, 7 d post-sTBI): 3.73 ± 0.38 nmol/g w.w. | GLU (15 mg/kg, 7 d post-sTBI): 10.25 ± 0.86 nmol/g w.w. | GLY (15 mg/kg, 7 d post-sTBI): 0.78 ± 0.12 nmol/g w.w. | L-Cystat (15 mg/kg, 7 d post-sTBI): 0.25 ± 0.04 nmol/g w.w. | MET (15 mg/kg, 7 d post-sTBI): 0.04 ± 0.01 nmol/g w.w. | ORN (15 mg/kg, 7 d post-sTBI): 0.01 ± 0.01 nmol/g w.w. | SAH (15 mg/kg, 7 d post-sTBI): 0.04 ± 0.01 nmol/g w.w. | SER (15 mg/kg, 7 d post-sTBI): 0.76 ± 0.12 nmol/g w.w. | THR (15 mg/kg, 7 d post-sTBI): 0.72 ± 0.14 nmol/g w.w. | HYS concentration in deproteinized brain homogenate [2]: 0.06 ± 0.01 nmol/g w.w. | ILE concentration in deproteinized brain homogenate [2]: 0.03 ± 0.01 nmol/g w.w. | LEU concentration in deproteinized brain homogenate [2]: 0.04 ± 0.01 nmol/g w.w. | LYS concentration in deproteinized brain homogenate [2]: 0.23 ± 0.07 nmol/g w.w. | PHE concentration in deproteinized brain homogenate [2]: 0.05 ± 0.01 nmol/g w.w. | TAU concentration in deproteinized brain homogenate [2]: 3.47 ± 0.44 nmol/g w.w. | TRP concentration in deproteinized brain homogenate [2]: 0.03 ± 0.01 nmol/g w.w. | TYR concentration in deproteinized brain homogenate [2]: 0.14 ± 0.02 nmol/g w.w. | VAL concentration in deproteinized brain homogenate [2]: 0.07 ± 0.01 nmol/g w.w. | HYS concentration in deproteinized brain homogenate [3]: 0.06 ± 0.01 nmol/g w.w. | ILE concentration in deproteinized brain homogenate [3]: 0.04 ± 0.01 nmol/g w.w. | LEU concentration in deproteinized brain homogenate [3]: 0.05 ± 0.01 nmol/g w.w. | LYS concentration in deproteinized brain homogenate [3]: 0.19 ± 0.06 nmol/g w.w. | PHE concentration in deproteinized brain homogenate [3]: 0.05 ± 0.01 nmol/g w.w. | TAU concentration in deproteinized brain homogenate [3]: 4.02 ± 0.51 nmol/g w.w. | TRP concentration in deproteinized brain homogenate [3]: 0.01 ± 0.01 nmol/g w.w. | TYR concentration in deproteinized brain homogenate [3]: 0.13 ± 0.02 nmol/g w.w. | VAL concentration in deproteinized brain homogenate [3]: 0.08 ± 0.01 nmol/g w.w. | HYS concentration in deproteinized brain homogenate [4]: 0.06 ± 0.01 nmol/g w.w. | ILE concentration in deproteinized brain homogenate [4]: 0.05 ± 0.01 nmol/g w.w. | LEU concentration in deproteinized brain homogenate [4]: 0.05 ± 0.01 nmol/g w.w. | LYS concentration in deproteinized brain homogenate [4]: 0.21 ± 0.04 nmol/g w.w. | PHE concentration in deproteinized brain homogenate [4]: 0.06 ± 0.01 nmol/g w.w. | TAU concentration in deproteinized brain homogenate [4]: 3.51 ± 0.44 nmol/g w.w. | TRP concentration in deproteinized brain homogenate [4]: 0.02 ± 0.01 nmol/g w.w. | TYR concentration in deproteinized brain homogenate [4]: 0.13 ± 0.02 nmol/g w.w. | VAL concentration in deproteinized brain homogenate [4]: 0.08 ± 0.01 nmol/g w.w. | HYS concentration in deproteinized brain homogenate [5]: 0.06 ± 0.01 nmol/g w.w. | ILE concentration in deproteinized brain homogenate [5]: 0.07 ± 0.01 nmol/g w.w. | LEU concentration in deproteinized brain homogenate [5]: 0.07 ± 0.01 nmol/g w.w. | LYS concentration in deproteinized brain homogenate [5]: 0.21 ± 0.05 nmol/g w.w. | PHE concentration in deproteinized brain homogenate [5]: 0.07 ± 0.01 nmol/g w.w. | TAU concentration in deproteinized brain homogenate [5]: 3.38 ± 0.44 nmol/g w.w. | TRP concentration in deproteinized brain homogenate [5]: 0.03 ± 0.01 nmol/g w.w. | TYR concentration in deproteinized brain homogenate [5]: 0.14 ± 0.02 nmol/g w.w. | VAL concentration in deproteinized brain homogenate [5]: 0.10 ± 0.01 nmol/g w.w.
